{"source": "patent US20210221866A1", "about": "“PROTEASE-RESISTANT LIPIDATED GLP-1 ANALOGS” (MEDIMMUNE LIMITED, priority 2015, published 2021)", "test": "in vitro", "conditions": "isolated enzyme chymotrypsin, pH 7.8", "data": [{"compound": "CCCCCCCCCCCCCCCC(=O)N[C@@H](CCC(=O)NCCCC[C@H](NC(=O)[C@H](C)NC(=O)[C@H](C)NC(=O)[C@H](CCC(N)=O)NC(=O)CNC(=O)[C@H](CCC(=O)O)NC(=O)[C@H](CC(C)C)NC(=O)[C@H](Cc1ccc(O)cc1)NC(=O)[C@H](CO)NC(=O)[C@H](CO)NC(=O)[C@@H](NC(=O)[C@H](CC(=O)O)NC(=O)[C@H](CO)NC(=O)[C@@H](NC(=O)[C@H](Cc1ccccc1)NC(=O)[C@@H](NC(=O)CNC(=O)[C@H](CCC(=O)O)NC(=O)[C@H](C)NC(=O)[C@@H](N)Cc1cnc[nH]1)[C@@H](C)O)[C@@H](C)O)C(C)C)C(=O)N[C@@H](CCC(=O)O)C(=O)N[C@@H](Cc1ccccc1)C(=O)N[C@H](C(=O)N[C@@H](C)C(=O)N[C@@H](Cc1c[nH]c2ccccc12)C(=O)N[C@@H](CC(C)C)C(=O)N[C@H](C(=O)N[C@@H](CCCNC(=N)N)C(=O)NCC(=O)N[C@@H](CCCNC(=N)N)C(=O)NCC(=O)O)C(C)C)[C@@H](C)CC)C(=O)O", "note": "[Liraglutide]", "values": [{"measurement": "remaining at 1 h", "value": 95.6, "unit": "%"}]}]}
